Earlier results as cited in patent US20210315248A1, “SYSTEM AND METHOD FOR HOVENIA DULCIS EXTRACTION” (82 Labs Inc., priority 2020, published 2021).

Tests used:
[1] = design: key: ability to form inclusion complexes, as indicated by a “+”; conditions: guest molecule with γ-cyclodextrin
[2] = design: key: ability to form inclusion complexes, as indicated by a “+”; conditions: guest molecule with β-cyclodextrin
[3] = design: key: ability to form inclusion complexes, as indicated by a “+”; conditions: guest molecule with α-cyclodextrin
[4] = not given; remark: listed apart in the source

SMILES | ability to form inclusion complexes with γ-CD [1] | ability to form inclusion complexes with β-CD [2] | ability to form inclusion complexes with α-CD [3] | also measured
c1ccc2cc3ccccc3cc2c1 [Anthracene] | + | – | – | –
CCCC(=O)O [Butyric acid] | – | + | + | –
C1CCCCC1 [Cyclohexane] | + | + | + | –
O=C1c2c(O)cc(O)cc2O[C@H](c2cc(O)c(O)c(O)c2)[C@H]1O [DHM, (2R,3R)-3,5,7-trihydroxy-2-(3,4,5-trihydroxyphenyl)-2,3-dihydrochromen-4-one] | – | – | – | permeability Peff: (1.84±0.37)×10^−6 cm/s
OC[C@H]1O[C@@H]2O[C@H]3[C@H](O)[C@@H](O)[C@@H](O[C@H]4[C@H](O)[C@@H](O)[C@@H](O[C@H]5[C@H](O)[C@@H](O)[C@@H](O[C@H]6[C@H](O)[C@@H](O)[C@@H](O[C@H]7[C@H](O)[C@@H](O)[C@@H](O[C@H]1[C@H](O)[C@H]2O)O[C@@H]7CO)O[C@@H]6CO)O[C@@H]5CO)O[C@@H]4CO)O[C@@H]3CO [α-Cyclodextrin, α-cyclodextrin] | – | – | – | pKa value (25° C.) [4]: 12.331

Second part, led by results:

ability to form inclusion complexes with γ-CD [1] | ability to form inclusion complexes with β-CD [2] | ability to form inclusion complexes with α-CD [3] | SMILES | also measured
+ | + | – | c1ccc2ccccc2c1 [Naphthalene] | –
– | – | + | CCC(=O)O [Propionic acid] | –
– | – | + | [Xe] [Xenon] | –
